Reference: ChEMBL document CHEMBL1127265, “Synthesis of a novel ring contracted artemisinin derivative” (1994)

Species on record: Mus musculus
Experiment: Blood schizonticidal activity in mice model with Plasmodium berghei k-173 infection was determined
Type: functional

| SMILES | ED90 [mg/kg] |
| --- | --- |
| CC1OC2OC3(C)CCC4[C@H](C)CCC([C@H]1C)[C@@]24OO3.O (single isomer, unassigned) | 10 |
| CCO[C@H]1O[C@@H]2O[C@@]3(C)CC[C@H]4[C@H](C)CC[C@@H]([C@H]1C)[C@@]24OO3 [ARTEMOTIL] | 1.25 |
| C[C@@H]1CCC2[C@]34OOC(C)(CCC13)O[C@H]4O[C@]2(C)CO (single isomer, unassigned) | 25 |
| C[C@@H]1CCC2[C@@H](C)[C@@H](OC[C@]3(C)OC4OC5(C)CCC6[C@@H](C)CCC3[C@]46OO5)OC3OC4(C)CCC1[C@]32OO4 (single isomer, unassigned) | 1.25 |
| C[C@@H]1CCC2[C@@H](C)[C@H](OC[C@@]3(C)OC4OC5(C)CCC6[C@H](C)CCC3[C@@]46OO5)OC3OC4(C)CCC1[C@]32OO4 (single isomer, unassigned) | 2.5 |
| C[C@@H]1CCC2[C@]34OOC(C)(CCC13)O[C@H]4O[C@]2(C)C=O (single isomer, unassigned) | 25 |
